Like-named read-outs stand apart in the source and are kept apart here.
Legend:
Assay type in all cases: physicochemical
[1] = Solubility of the ligands and complexes in water; settings: for solubility: r.t.
From the text: Elemental (see experimental section) and TGA (Figure S5) analyses confirmed the formulae Na2H4L^1∙5.5H2O (bis-TCH) and Na2H4L^2∙5H2O (bis-CH).

[2] = Cu(II) complex formation equilibria, spectrophotometric titration at pH 2.5; settings: conditional formation constant, aqueous solution, pH = 2.5, T = 298.2 K
From the text: The copper(II) complexation equilibria of bis-TCH were studied by means of spectrophotometric titration of the ligand with Cu(II) in aqueous solution at pH = 2.5 and pH = 7.4. […] For this reason, in the speciation models, L identifies the ligand irrespective of its protonation state, and the charges of the complexes are omitted. […] The two bands at 237 and 318 nm, observed in the spectrum of the free ligand, decrease in absorbance upon addition of Cu(II), while the two bands at 259 and 400 nm increase.
A plot of absorbance at 280 nm vs. Cu(II)/ligand molar ratio (Figure 3, inset) quite clearly evidenced that two equivalence points are present: one at ca. 0.75 eq. and one at ca. 1.5 eq. of metal added, corresponding to the formation of [Cu3L4] and [Cu3L2] species. […] The [Cu3L4] species could have a simple structural explanation considering some peculiar characters of bis-TCH. This ligand, in fact, adds to the coordinating possibilities of the central skeleton (ONSNO) two sulfonic groups, which are deprotonated, such that they can also behave as counteranions. Moreover, both the ligands have a great affinity for Cu(II) ions, but bis-TCH is more acidic than bis-CH, and this implies that it more stably coordinates Cu(II) already at pH 2.5. It will be seen further in the discussion that in the case of bis-CH at pH = 2.5, the [CuL] species is identified, while, at the same pH, bis-TCH is able to compete more efficiently for the Cu(II) ions in solution, and the result is [Cu3L4], a species with a higher ligand/metal ratio (Figure S19).
The copper(II) complexation equilibria of bis-CH were studied by means of spectrophotometric titration at pH = 2.5 and 7.4. […] The best fit of the spectrophotometric data was obtained by considering the formation of [CuL] and [Cu2L] species, with log β values of 6.26(2) and 11.30(2), respectively (Table 2).
Samples used for the study of protonation equilibria of the ligands were prepared as follows. […] For each solution, the absorption spectrum was collected in the 220–600 nm range at 298.2 K. The spectral data collection was carried out immediately after the preparation of the samples and repeated after 3 and 10 min for all the samples at different pH values to check the stability of the ligand. […]
The logarithms of the apparent stability constants were calculated from the spectral dataset using HypSpec2014 software. […] All equilibria were studied at fixed pH, and therefore the determined log β values are logarithms of conditional formation constants. […] Speciation diagrams were calculated using the Hyss2009 software. […]

[3] = Proton dissociation constants by pH potentiometry; settings: aqueous solution, T = 298.2 K, I = 0.1 M KCl
From the text: Between pH = 3.98 and 6.00, the solutions were colourless with absorption maxima at 237 and 320 nm. From pH = 6.49, the solution was pale green, and the colour became more intense until pH = 10.00; the colour change was accompanied by the appearance of bands at 253 and 393 nm, with a shoulder at 445 nm. […] This value is similar to that reported for the deprotonation of the phenolic moiety of sodium 5-sulfonate-salicylaldehyde thiosemicarbazones. The values of pKa1 and pKa2, associated with the proton dissociation of the sulfonic groups, are expected to have much lower values (below 3) and could not be determined from these experiments. Potentiometric titrations were performed in an attempt to determine the value of the pKa of the hydrazidic NH protons (pKa5 and pKa6) and, possibly, those of the protonated sulfonate groups. Effectively, potentiometric data allowed us to determine the pKa5 value, along with pKa3 and pKa4 (Table 2). The values of pKa3 and pKa4 obtained by potentiometry are consistent with those obtained by spectrophotometric titrations.
Similarly, the proton dissociation constants of bis-CH were studied spectrophotometrically in aqueous solution between pH = 3.98 and 10.00 (Figure 1B). […] The spectrophotometric data were processed by means of HypSpec2014 software, leading to pKa3 = 7.34(1) and pKa4 = 8.58(1), which were assigned to the deprotonation of the two phenolic OH groups (Table 2). As for bis-TCH, the single-site pKa value of the phenolic groups can be estimated as the average pKa (7.96). Additionally, to complete the analysis, we carried out potentiometric titrations of bis-CH starting from a very acidic pH. […] Importantly, no dissociation of the hydrazidic NH groups was observed, a behaviour consistent with that reported in the literature.
Glass-electrode potentiometric titrations of bis-TCH and bis-CH were carried out in aqueous solution at T = 298.2 ± 0.1 K and I = 0.1 M (KCl) under a stream of N2, using 1.5 mL samples. The potentiometric titrations were carried out using an automatic Metrohm OMNIS titrator provided with a Metrohm semi-micro glass electrode. The system was controlled by a PC to monitor the attainment of the equilibrium through pH measurements vs. time and the addition of titrant aliquots. The Metrohm combined glass electrode was calibrated in terms of [H^+] (hereafter, pH = −log[H^+]) by titrating HCl solutions with KOH solutions previously standardized against potassium hydrogen phthalate. […] The protonation constants of Na2H4L^1·5.5 H2O and Na2H4L^2·5 H2O were determined by alkalimetric titration of 3 samples (3.0–4.5 mM). All samples were prepared by weight of the pure solids and dissolved in freshly prepared, N2-fluxed, double-distilled water. Potentiometric data treatment was carried out using Hyperquad2013 software. Distribution diagrams were obtained using Hyss2009 software.

Row | SMILES | solubility in water (in words) [1] | solubility [1] | Log β([Cu2L]) [2] | Log β([CuL]) [2] | pKa ([3]; read-out: pKa3) | pKa ([3]; read-out: pKa4) | pKa ([3]; second sulfonic group, read-out: pKa2) | Log β([Cu3L2]) [2] | Log β([Cu3L4]) [2] | pKa ([3]; hydrazidic NH, read-out: pKa5)
1 | COc1cc(S(=O)(=O)[O-])cc(/C=N/NC(=O)N/N=C/c2cc(S(=O)(=O)[O-])cc(OC)c2O)c1O.[Na+].[Na+] [bis-CH, Bis-(sodium 3-methoxy-5-sulfonate-salicylaldehyde)-carbohydrazone] | very soluble in water | ~23 mg/mL | 11.30(2) | 6.26(2) | 7.77 | 8.45 | 1.7 |  |  | 
2 | COc1cc(S(=O)(=O)[O-])cc(/C=N/NC(=S)N/N=C/c2cc(S(=O)(=O)[O-])cc(OC)c2O)c1O.[Na+].[Na+] [bis-TCH, Bis-(sodium 3-methoxy-5-sulfonate-salicylaldehyde)-thiocarbohydrazone] | very soluble in water | ~10 mg/mL |  |  | 7.08 | 8.54 |  | 26.4(1) | 38.6(1) | 11.3

Source: paper PMC11476552, “Synthesis and Preliminary Studies for In Vitro Biological Activity of Two New Water-Soluble Bis(thio)carbohydrazones and Their Copper(II) and Zinc(II) Complexes” (International Journal of Molecular Sciences, 2024)
